This note sets out measurements from US8071590B2, “9-substituted-5-carboxy-oxadiazino-quinolone derivatives, their preparation and their application as anti-bacterials” (Vetoquinol SA, priority 2008, dated 2011).

Assay type in all cases: cell-based
Test [1] concerns Mannheimia haemolytica, susceptible (Man hae s). Nature of the test: MIC determination by microdilution in liquid medium. Conditions: susceptible strain. For orientation: Dilution methods test growth across graded concentrations, often in twofold steps.
In test [2] the test system is Mannheimia haemolytica, resistant (Man hae r). Described as above. Conditions: resistant strain.
The subject of test [3] is Bordetella bronchiseptica (Bor bron). Description: microbe, parasite or virus in culture. Conditions: read-out: MIC Bor bron.
For test [4], the system named is Pseudomonas aeruginosa, susceptible (Pse aer s). Description: microbe, parasite or virus in culture. As to conditions: read-out: MIC Pse aer s.
In test [5] the test system is Pseudomonas aeruginosa, resistant (Pse aer r). Description: microbe, parasite or virus in culture. As to conditions: read-out: MIC Pse aer r.
Test [6] concerns Escherichia coli (E coli). Description: microbe, parasite or virus in culture. Conditions: read-out: MIC E coli.
In test [7] the test system is Streptococcus uberis (Str ube). Nature of the test: microbe, parasite or virus in culture. Conditions: read-out: MIC Str ube.
Test [8] relates to Staphylococcus aureus, susceptible (Sta aur s). Nature of the test: microbe, parasite or virus in culture. As to conditions: read-out: MIC Sta aur s.
The subject of test [9] is Staphylococcus aureus, resistant (Sta aur r). Description: microbe, parasite or virus in culture. As to conditions: read-out: MIC Sta aur r.
Test [10] concerns Mycoplasma bovis (Myc bov). Nature of the test: microbe, parasite or virus in culture. Conditions: Mycoplasmopsis bovis, read-out: MIC Myc bov.
The subject of test [11] is Clostridium perfringens (Clo per). Nature of the test: microbe, parasite or virus in culture. As to conditions: read-out: MIC Clo per.

Values after ≈ are worked out from the molar mass of the structure shown. Some results are limits rather than exact numbers.

With `CN1COc2c(N3CCN4CCC[C@H]4C3)c(F)cc3c(=O)c(C(=O)O)cn1c23` [Example 8, 8-Fluoro-9-(S)-hexahydro-pyrrolo[1,2-a]pyrazin-2-yl-3-methyl-6-oxo-2,3-dihydro-6H-1-oxa-3,3a-diaza-phenalene-5-carboxylic acid], the MIC was found to be 0.03 µg/mL (≈ 0.0772 µM) in test [1]; 8 µg/mL (≈ 20.6 µM) in test [2]; 0.5 µg/mL (≈ 1.29 µM) in [3]; 0.5 µg/mL (≈ 1.29 µM) in test [4]; 8 µg/mL (≈ 20.6 µM) in [5]; 0.03 µg/mL (≈ 0.0772 µM) in test [6]. Also, the MIC in test [7] stood at 0.5 µg/mL (≈ 1.29 µM); in test [8], 0.25 µg/mL (≈ 0.644 µM); in test [9] it was 16 µg/mL (≈ 41.2 µM); in test [10], 1 µg/mL (≈ 2.57 µM); in test [11], 0.25 µg/mL (≈ 0.644 µM).
Turning to `CN1COc2c(N3CCN(C(=O)c4cccn4C)CC3)c(F)cc3c(=O)c(C(=O)O)cn1c23` [Example 1, 8-Fluoro-3-methyl-9-[4-(1-methyl-1H-pyrrole-2-carbonyl)-piperazin-1-yl]-6-oxo-2,3-dihydro-6H-1-oxa-3,3a-diaza-phenalene-5-carboxylic acid], the MIC in test [1] was 1 µg/mL (≈ 2.2 µM); in test [3], over 1 µg/mL; in [6] it was over 1 µg/mL; in test [7] it was 2 µg/mL (≈ 4.39 µM); in test [8], 0.25 µg/mL (≈ 0.549 µM); in [9] it was 16 µg/mL (≈ 35.1 µM). Further, the MIC in test [10] and in [11] was 0.5 µg/mL (≈ 1.1 µM) each time.
As to `CN1COc2c(N3CCN4CCCC4C3)c(F)cc3c(=O)c(C(=O)O)cn1c23` (stereo not shown) [Example 7, 8-Fluoro-9-(hexahydro-pyrrolo[1,2-a]pyrazin-2-yl)-3-methyl-6-oxo-2,3-dihydro-6H-1-oxa-3,3a-diaza-phenalene-5-carboxylic acid], the MIC in test [1] was determined as 0.03 µg/mL (≈ 0.0772 µM); in test [2], 4 µg/mL (≈ 10.3 µM); in test [3] it was 0.5 µg/mL (≈ 1.29 µM); in test [4] it was 1 µg/mL (≈ 2.57 µM); in [5], 8 µg/mL (≈ 20.6 µM); in test [6] it was 0.06 µg/mL (≈ 0.154 µM). The MIC in [7] was determined as 0.5 µg/mL (≈ 1.29 µM); in test [8], 0.25 µg/mL (≈ 0.644 µM); in test [9], 16 µg/mL (≈ 41.2 µM); in [10], 1 µg/mL (≈ 2.57 µM); in test [11] it was 0.25 µg/mL (≈ 0.644 µM).
Take `CN1COc2c(N3CCN4CCCCC4C3)c(F)cc3c(=O)c(C(=O)O)cn1c23` (stereo not shown) [Example 6, 8-Fluoro-3-methyl-9-(octahydro-pyrido[1,2-a]pyrazin-2-yl)-6-oxo-2,3-dihydro-6H-1-oxa-3,3a-diaza-phenalene-5-carboxylic acid]: the MIC is 0.06 µg/mL (≈ 0.149 µM) in [1]; 16 µg/mL (≈ 39.8 µM) in test [2]; 1 µg/mL (≈ 2.48 µM) in test [3]; 2 µg/mL (≈ 4.97 µM) in test [4]; 32 µg/mL (≈ 79.5 µM) in test [5]; 0.12 µg/mL (≈ 0.298 µM) in [6]. Moreover, the MIC in test [7] was determined as 1 µg/mL (≈ 2.48 µM); in test [8] it was 0.25 µg/mL (≈ 0.621 µM); in test [9], 16 µg/mL (≈ 39.8 µM); in test [10], 1 µg/mL (≈ 2.48 µM); in test [11] it was 0.5 µg/mL (≈ 1.24 µM).
Regarding `CN1COc2c(N3CCN(C(=O)c4cscn4)CC3)c(F)cc3c(=O)c(C(=O)O)cn1c23` [Example 2], the MIC was 0.25 µg/mL (≈ 0.544 µM) in [1]; over 1 µg/mL in [3]; over 1 µg/mL in test [6]; 2 µg/mL (≈ 4.35 µM) in [7]; 0.12 µg/mL (≈ 0.261 µM) in test [8]; 8 µg/mL (≈ 17.4 µM) in test [9]. Moreover, the MIC in test [10] stood at 1 µg/mL (≈ 2.18 µM); in test [11], 0.25 µg/mL (≈ 0.544 µM).
As to `CN1COc2c(N3CCN(C(=O)c4cccs4)CC3)c(F)cc3c(=O)c(C(=O)O)cn1c23` [Example 4, 8-Fluoro-3-methyl-6-oxo-9-[4-(thiophene-2-carbonyl)-piperazin-1-yl]-2,3-dihydro-6H-1-oxa-3,3a-diaza-phenalene-5-carboxylic acid], the MIC in test [1] was 0.25 µg/mL (≈ 0.545 µM); in [3] it was 2 µg/mL (≈ 4.36 µM); in test [6], over 1 µg/mL; in test [7], 0.5 µg/mL (≈ 1.09 µM); in [8], 0.06 µg/mL (≈ 0.131 µM); in [9] it was 4 µg/mL (≈ 8.72 µM). The results for the MIC in [10] and in [11] were 0.5 µg/mL (≈ 1.09 µM) and 0.25 µg/mL (≈ 0.545 µM), respectively.
On to `Cc1ncsc1C(=O)N1CCN(c2c(F)cc3c(=O)c(C(=O)O)cn4c3c2OCN4C)CC1` [Example 3, 8-Fluoro-3-methyl-9-[4-(4-methyl-thiazole-5-carbonyl)-piperazin-1-yl]-6-oxo-2,3-dihydro-6H-1-oxa-3,3a-diaza-phenalene-5-carboxylic acid], for which the MIC in test [1] is 0.5 µg/mL (≈ 1.06 µM); in test [3] it was 2 µg/mL (≈ 4.22 µM); in [6], over 1 µg/mL; in test [7] it was 1 µg/mL (≈ 2.11 µM); in test [8] it was 0.25 µg/mL (≈ 0.528 µM); in [9], 16 µg/mL (≈ 33.8 µM). The MIC came to 2 µg/mL (≈ 4.22 µM) in test [10] and 0.5 µg/mL (≈ 1.06 µM) in test [11].
With `CN1COc2c(N3CCN(C(=O)c4ccco4)CC3)c(F)cc3c(=O)c(C(=O)O)cn1c23` [Example 5, 8-Fluoro-9-[4-(furan-2-carbonyl)-piperazin-1-yl]-3-methyl-6-oxo-Z 3-dihydro-6H-1-oxa-3,3a-diaza-phenalene-5-carboxylic acid], the MIC in test [1] is 0.25 µg/mL (≈ 0.565 µM); in [3], over 1 µg/mL; in [4] it was over 1 µg/mL; in test [6], 1 µg/mL (≈ 2.26 µM); in test [7], 1 µg/mL (≈ 2.26 µM); in [8] it was 0.06 µg/mL (≈ 0.136 µM). The MIC in test [9] is 4 µg/mL (≈ 9.04 µM); in test [10], 0.5 µg/mL (≈ 1.13 µM); in test [11] it was under 0.03 µg/mL.
In the case of `CN1COc2c(N3CCN4CCC[C@@H]4C3)c(F)cc3c(=O)c(C(=O)O)cn1c23` [Example 9, 8-Fluoro-9-(R)-hexahydro-pyrrolo[1,2-a]pyrazin-2-yl-3-methyl-6-oxo-2,3-dihydro-6H-1-oxa-3,3a-diaza-phenalene-5-carboxylic acid], the MIC in [1] amounted to 0.03 µg/mL (≈ 0.0772 µM); in test [2], 4 µg/mL (≈ 10.3 µM); in [3] it was 0.25 µg/mL (≈ 0.644 µM); in test [4] it was 0.5 µg/mL (≈ 1.29 µM); in test [5], 8 µg/mL (≈ 20.6 µM); in [6], 0.03 µg/mL (≈ 0.0772 µM). Further, the MIC in test [7] amounted to 0.5 µg/mL (≈ 1.29 µM); in [8] it was 0.12 µg/mL (≈ 0.309 µM); in test [9], 8 µg/mL (≈ 20.6 µM); in test [10], 0.5 µg/mL (≈ 1.29 µM); in test [11], 0.5 µg/mL (≈ 1.29 µM).
